This is an account of results in US20040023987A1, “Sustained release compositions” (priority 2000, published 2004).

The series is described as follows: Solubility in second solution of Japanese Pharmacopoeia (0.2 M phosphate buffer, pH approx. 6.8). The format is physicochemical. The method, then:
The term “solubility” used herein means concentration of drug in a supernatant which is obtained by centrifugal separation of unsolved agent, after shaking a mixture prepared by adding the agent to the second solution defined in Japanese Pharmacopoeia [0.2 M phosphate-buffer (pH approx. 6.8), for more than 30 minutes at room temperature (about 15 to about 25° C.) in a rate of more than 100 times per minutes using, for example, a Recipro shaker (model SR-I, Taiyo Scientific Industrial Co., Ltd.).

Regarding `CONC(=O)Nc1ccc(-c2sc3c(c2CN(C)Cc2ccccc2)c(=O)n(-c2ccccc2)c(=O)n3Cc2c(F)cccc2F)cc1` [Reference example 7, 5-(N-Benzyl-N-methylaminomethyl)-1-(2,6-difluorobenzyl)-6-[4-(3-methoxyureido)phenyl]-3-phenylthieno[2,3-d]pyrimidine-2,4 (1H,3H)-dione], the “water solubility (in words)” value was “water-insoluble or slightly water-soluble”.
